Measured values: article PMC9501014, “Amaryllidaceae-Type Alkaloids from Pancratium maritimum: Apoptosis-Inducing Effect and Cell Cycle Arrest on Triple-Negative Breast Cancer Cells” (Molecules, 2022)

System: Bax, Bcl-xL, p21, p53 protein expression in MDA-MB-231 cells
Experiment: Western blot analysis of protein expression levels
Format: cell-based, human
Conditions: 16 µM, 48 h
Protocol: Once compound 7 induced cancer cell death by apoptosis, we next explored the molecular pathways involved in its apoptotic effect. For that, some apoptotic-related proteins were checked in MDA-MB-231 cells treated with 16 µM of compound 7 for 48 h (Figure 2E,F).
MDA-MB-231 cells were seeded in 6-well plates at a density of 1.5 × 10^5 cells/well for 24 h, followed by treatment with 16 µM of compound 7. Protein extracts were quantified using the Bradford reagent (Sigma-Aldrich). Proteins were run in SDS-PAGE and transferred to a Whatman nitrocellulose membrane from Protan (VWR, Carnaxide, Portugal). After blocking, proteins were identified using specific primary antibodies: rabbit polyclonal anti-p21 (Santa Cruz Biotechnology, Dallas, […], USA), rabbit polyclonal anti-Bax, and rabbit monoclonal anti-Bcl-xL (Invitrogen, Waltham, MA, USA), followed by the respective anti-mouse/anti-rabbit HRP-conjugated secondary antibodies (Santa Cruz Biotechnology). GAPDH was used as a loading control. The signal was detected with the ECL Amersham kit from GE Healthcare (VWR, Carnaxide, Portugal). Two detection methods were used: the Kodak GBX developer and fixer (Sigma-Aldrich) or the ChemiDoc™ XRS Imaging System from Bio-Rad Laboratories (Amadora, Portugal).

COc1cc2c(cc1O)C(=O)OC1[C@@H](O)C=C3CCN(C)C3[C@]21O (stereo partly drawn) [Compound 7, 2α-10bα-dihydroxy-9-O-demethylhomolycorine]
Bax protein levels (MDA-MB-231): increased levels
Bcl-xL protein levels (MDA-MB-231): reduced levels
p21 protein levels (MDA-MB-231): increased the p21 protein levels
p53 protein expression levels (MDA-MB-231, data not shown): did not interfere
